Experimental data as given in US20140323521A1, “PHARMACEUTICAL COMPOSITIONS AND ADMINISTRATIONS THEREOF” (Vertex Pharmaceuticals Incorporated, priority 2011, published 2014).

Tests used:
Experiment in all cases: FRT cell Ussing chamber chloride transport assay
Assay type in all cases: cell-based
human CFTR mutant G1244E = target: T1, human CFTR mutant G1244E (Homo sapiens, UniProt P13569, G1244E); details: FRT cells expressing G1244E CFTR
T1 construct: expressed in transfected cells; host or cells: Fisher rat thyroid (FRT) FlpIn cells, pcDNA5/FRT
T1 sequence (P13569 whole entry G1244E): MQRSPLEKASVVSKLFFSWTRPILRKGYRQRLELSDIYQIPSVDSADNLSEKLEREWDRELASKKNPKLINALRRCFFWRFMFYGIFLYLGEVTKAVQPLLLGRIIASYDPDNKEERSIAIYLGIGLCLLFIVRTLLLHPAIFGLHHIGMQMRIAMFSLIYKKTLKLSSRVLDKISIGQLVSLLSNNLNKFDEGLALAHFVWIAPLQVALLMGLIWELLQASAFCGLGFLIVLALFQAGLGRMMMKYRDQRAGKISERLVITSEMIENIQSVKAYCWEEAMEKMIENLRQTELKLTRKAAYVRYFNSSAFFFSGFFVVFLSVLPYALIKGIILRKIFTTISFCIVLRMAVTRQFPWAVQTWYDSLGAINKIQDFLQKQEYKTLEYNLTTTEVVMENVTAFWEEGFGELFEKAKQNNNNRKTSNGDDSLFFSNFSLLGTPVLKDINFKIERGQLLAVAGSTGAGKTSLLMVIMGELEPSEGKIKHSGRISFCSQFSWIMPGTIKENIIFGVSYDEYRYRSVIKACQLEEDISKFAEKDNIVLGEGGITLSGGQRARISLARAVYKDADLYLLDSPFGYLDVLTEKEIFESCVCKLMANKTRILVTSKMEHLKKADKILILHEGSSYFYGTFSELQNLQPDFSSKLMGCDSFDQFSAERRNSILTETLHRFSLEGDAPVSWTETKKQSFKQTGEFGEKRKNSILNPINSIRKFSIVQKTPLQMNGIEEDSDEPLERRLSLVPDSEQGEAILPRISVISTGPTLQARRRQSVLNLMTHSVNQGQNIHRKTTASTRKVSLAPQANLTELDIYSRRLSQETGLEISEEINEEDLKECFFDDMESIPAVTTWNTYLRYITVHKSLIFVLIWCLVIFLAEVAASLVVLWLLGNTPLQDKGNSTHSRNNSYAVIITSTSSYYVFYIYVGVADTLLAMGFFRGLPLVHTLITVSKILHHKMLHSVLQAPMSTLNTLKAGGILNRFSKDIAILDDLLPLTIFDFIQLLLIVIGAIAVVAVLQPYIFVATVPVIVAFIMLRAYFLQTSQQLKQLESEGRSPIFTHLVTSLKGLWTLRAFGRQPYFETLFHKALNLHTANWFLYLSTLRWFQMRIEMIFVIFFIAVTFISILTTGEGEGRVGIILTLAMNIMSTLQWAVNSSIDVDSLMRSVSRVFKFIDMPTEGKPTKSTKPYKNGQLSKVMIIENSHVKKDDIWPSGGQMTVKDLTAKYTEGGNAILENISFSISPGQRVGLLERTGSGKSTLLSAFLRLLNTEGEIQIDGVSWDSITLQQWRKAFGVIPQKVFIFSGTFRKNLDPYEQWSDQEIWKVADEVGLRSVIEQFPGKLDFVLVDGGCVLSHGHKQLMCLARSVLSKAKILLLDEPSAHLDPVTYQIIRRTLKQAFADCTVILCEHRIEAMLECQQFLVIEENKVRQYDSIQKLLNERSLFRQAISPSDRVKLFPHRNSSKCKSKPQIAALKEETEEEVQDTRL
Source text: (§1) DNA cloning: Wild-type CFTR coding region was inserted into pcDNA5/FRT (Invitrogen, San Diego, Calif.) between EcoRV and ApaI.
(§2) Single CFTR gene mutations were introduced into the wild-type CFTR coding sequence by using QuickChange XL site-directed mutagenesis kit (Stratagene, Cambridge, UK). The CFTR coding region as well as its promoter sequence and 3′ untranslated sequence was fully sequenced to confirm the mutagenesis reaction.
(§3) The CFTR gene was stably expressed in Fisher rat thyroid (FRT) cells through FlpIn system. The FRT-FlpIn host cell line was generated by stably transfecting FRT cells with pFRT/lacZeo. The single integration of a FRT site was confirmed by Southern blot. After the mutant CFTR DNA was transfected into the FRT-FlpIn host cell line, the cells were incubate at 37° C. in Coon's modified Ham's F12 containing 10% FBS, 1% Pen/Strep, and 36 ml of Na-Bicarbonate for up to 8 passages under hygromycin selection (200 ug/ml).
(§4) All cells were grown on Costar® Snapwell™ cell culture inserts at maintained at 37° C. prior to recording. The cell culture inserts were mounted into an Ussing chamber (VCC MC8; Physiologic Instruments, Inc., San Diego, Calif.) to record ISC in the voltage-clamp mode (Vhold=0 mV). For FRT cells, the basolateral membrane was permeabilized with 360 μg/ml Nystatin and a basolateral to apical Cl− gradient was established. The basolateral bath solution contained (in mM); 135 NaCl, 1.2 CaCl2, 1.2 MgCl2, 2.4 K2HPO4, 0.6 KHPO4, 10 N-2-hydroxyethylpiperazine-N′-2-ethanesulfonic acid (HEPES), and 10 dextrose (titrated to pH 7.4 with NaOH). The apical NaCl was replaced by equimolar Na+ gluconate (titrated to pH 7.4 with NaOH). For HBE cells, the ISC was measured in the presence of a basolateral to apical Cl− gradient. The normal Cl− solution contained (in mM) 145 NaCl, 3.3 K2HPO4, 1.2 MgCl2, 1.2 CaCl2, 10 Glucose, 10 HEPES (pH adjusted to 7.35 with NaOH) and the low Cl− solution contained (in mM) 145 NaGluconate, 1.2 MgCl2, 1.2 CaCl2, 10 glucose, 10 HEPES (pH adjusted to 7.35 with NaOH). All recordings were digitally acquired using a Acquire and Analyze software (version 2; Physiologic Instruments, Inc. San Diego, Calif.).
(§5) The 10 μM forskolin stimulated response in FRT cell expressing different mutant CFTR forms or in HBE cells isolated from CF patients was normalized to the 10 μM forskolin-stimulated response in FRT cells expressing wild-type CFTR or in HBE isolated from non-CF individuals and expressed as % wild-type CFTR. In HBE, amiloride was added prior to forskolin application to block the epithelial Na+ channel.

human CFTR mutant G1349D = target: T2, human CFTR mutant G1349D (Homo sapiens, UniProt P13569, G1349D); details: FRT cells expressing G1349D CFTR
T2 construct: expressed in transfected cells; host or cells: Fisher rat thyroid (FRT) FlpIn cells, pcDNA5/FRT
T2 sequence (P13569 whole entry G1349D): as the sequence (P13569 whole entry G1244E) above, with E1244G, G1349D counted along it
Source text: as §1, §2, §3, §4, §5

human CFTR mutant G178R = target: T3, human CFTR mutant G178R (Homo sapiens, UniProt P13569, G178R); details: FRT cells expressing G178R CFTR
T3 construct: expressed in transfected cells; host or cells: Fisher rat thyroid (FRT) FlpIn cells, pcDNA5/FRT
T3 sequence (P13569 whole entry G178R): as the sequence (P13569 whole entry G1244E) above, with G178R, E1244G counted along it
Source text: as §1, §2, §3, §4, §5

human CFTR mutant G551S = target: T4, human CFTR mutant G551S (Homo sapiens, UniProt P13569, G551S); details: FRT cells expressing G551S CFTR
T4 construct: expressed in transfected cells; host or cells: Fisher rat thyroid (FRT) FlpIn cells, pcDNA5/FRT
T4 sequence (P13569 whole entry G551S): as the sequence (P13569 whole entry G1244E) above, with G551S, E1244G counted along it
Source text: as §1, §2, §3, §4, §5

human CFTR mutant G970R = target: T5, human CFTR mutant G970R (Homo sapiens, UniProt P13569, G970R); details: FRT cells expressing G970R CFTR
T5 construct: expressed in transfected cells; host or cells: Fisher rat thyroid (FRT) FlpIn cells, pcDNA5/FRT
T5 sequence (P13569 whole entry G970R): as the sequence (P13569 whole entry G1244E) above, with G970R, E1244G counted along it
Source text: as §1, §2, §3, §4, §5

human CFTR mutant S1251N = target: T6, human CFTR mutant S1251N (Homo sapiens, UniProt P13569, S1251N); details: FRT cells expressing S1251N CFTR
T6 construct: expressed in transfected cells; host or cells: Fisher rat thyroid (FRT) FlpIn cells, pcDNA5/FRT
T6 sequence (P13569 whole entry S1251N): as the sequence (P13569 whole entry G1244E) above, with E1244G, S1251N counted along it
Source text: as §1, §2, §3, §4, §5

human CFTR mutant S1255P = target: T7, human CFTR mutant S1255P (Homo sapiens, UniProt P13569, S1255P); details: FRT cells expressing S1255P CFTR
T7 construct: expressed in transfected cells; host or cells: Fisher rat thyroid (FRT) FlpIn cells, pcDNA5/FRT
T7 sequence (P13569 whole entry S1255P): as the sequence (P13569 whole entry G1244E) above, with E1244G, S1255P counted along it
Source text: as §1, §2, §3, §4, §5

human CFTR mutant S549N = target: T8, human CFTR mutant S549N (Homo sapiens, UniProt P13569, S549N); details: FRT cells expressing S549N CFTR
T8 construct: expressed in transfected cells; host or cells: Fisher rat thyroid (FRT) FlpIn cells, pcDNA5/FRT
T8 sequence (P13569 whole entry S549N): as the sequence (P13569 whole entry G1244E) above, with S549N, E1244G counted along it
Source text: as §1, §2, §3, §4, §5

human CFTR mutant S549R = target: T9, human CFTR mutant S549R (Homo sapiens, UniProt P13569, S549R); details: FRT cells expressing S549R CFTR
T9 construct: expressed in transfected cells; host or cells: Fisher rat thyroid (FRT) FlpIn cells, pcDNA5/FRT
T9 sequence (P13569 whole entry S549R): as the sequence (P13569 whole entry G1244E) above, with S549R, E1244G counted along it
Source text: as §1, §2, §3, §4, §5

increase in chloride transport, relative to baseline chloride transport (human CFTR mutant G1244E): greater than 10 fold
increase in chloride transport, relative to baseline chloride transport (human CFTR mutant G1349D): greater than 10 fold
increase in chloride transport, relative to baseline chloride transport (human CFTR mutant G178R): greater than 10 fold
increase in chloride transport, relative to baseline chloride transport (human CFTR mutant G551S): greater than 10 fold
increase in chloride transport, relative to baseline chloride transport (human CFTR mutant G970R): greater than 10 fold
increase in chloride transport, relative to baseline chloride transport (human CFTR mutant S1251N): greater than 10 fold
increase in chloride transport, relative to baseline chloride transport (human CFTR mutant S1255P): greater than 10 fold
increase in chloride transport, relative to baseline chloride transport (human CFTR mutant S549N): greater than 10 fold
increase in chloride transport, relative to baseline chloride transport (human CFTR mutant S549R): greater than 10 fold
Structure (SMILES): CC(C)(C)c1cc(C(C)(C)C)c(NC(=O)c2c[nH]c3ccccc3c2=O)cc1O [Compound 1, N-[2,4-bis(1,1-dimethylethyl)-5-hydroxyphenyl]-1,4-dihydro-4-oxoquinoline-3-carboxamide]
